Laboratory results from paper PMC9343874, “Comparative Pharmacokinetics of Cinobufacini Capsule and Injection by UPLC-MS/MS” (Frontiers in Pharmacology, 2022).
Like-named read-outs stand apart in the source and are kept apart here.

What was measured:
[1] = parameters: method as in Huang et al., 2015; conditions: after administration of Shexiang Baoxin pill; ref Huang et al., 2015; cited from earlier work
[2] = Pharmacokinetic study in rats after intravenous administration of cinobufacini injection (UPLC-MS/MS of plasma); format: in vivo, rat; conditions: cinobufacini injection group, intravenous
Description: (§1) Male Sprague–Dawley rats (weighing 200–220 g) of SPF grade were offered by Sippr/BK laboratory Animal, Corp., Ltd. (Shanghai, China) and fed in the Laboratory Animal Center of the Shanghai University of Traditional Chinese Medicine. All the rats were kept under environmentally controlled conditions with constant temperature (22–24°C) and humidity (60–65%). The animal experiment program in the present research was approved by the Animal Committee of the Shanghai University of Traditional Chinese Medicine (PZSHUTCM210618012).
(§2) An Agilent 1290 liquid chromatographic system includes a G4220A quaternary pump, a G1326C column incubator, a G4226A automatic sampler, and a G1330B degasser. The column temperature was set to 35°C. A measure of 5 µL of samples were separated in an Agilent SB-C18 column (2.1 mm ×50 mm, 1.8 μm) and eluted at 0.3 ml/min, followed by gradient elution with water (0.1% V/V formic acid) (A) and acetonitrile (B) (0–1 min, 20%–20% B; 1–3.5 min, 20%–80% B; 4–4.1 min, 80%-20% B; 4.1–6 min, 20% B). The total run time was 6 minutes.
(§3) An Agilent 1290 Infinity series UPLC system was combined with an Agilent 6460 series triple quadrupole mass spectrometer (Agilent Technologies, Santa Clara, CA, United States) to quantify all 13 analytes in an ESI-positive ionization mode. Quantitative analysis was performed in an MRM mode. The mass spectrum conditions were as follows: capillary voltage, 4000V; drying gas (N2), gas flow rate: 10 L/min; sprayer, 30 psi; gas temperature 350°C; The delta EMV (+) 200 V; collision gas (N2); dwell time, 25 ms. Agilent’s MassHunter Workstation software was used for data collection, peak area calculation, and quantitative analysis.
(§4) A measure of 50 µL of the plasma sample was mixed with 10 µL of the internal standard solution (345 ng/ml) in a 1.5-ml centrifuge tube and vortexed for 5 min. The samples were extracted by 500 µL of ethyl acetate for 5 min and centrifuged at 4°C for 10 min (18000 rpm). All the supernatants were collected into another 1.5-ml centrifuge tube, dried under a gentle stream of nitrogen at 37°C, and then added with 50 µL of 80% methanol for resolution. The resolution samples were centrifuged at 4°C for 10 min (18000 rpm), and 5 µL supernatant was extracted and injected for analysis.
(§5) Twenty-four male Sprague–Dawley rats (weigh 200–220 g) were divided into four groups with six rats in each group randomly, including three capsule groups at three different doses and one injection group. In the instructions for cinobufacini capsule and injection, the clinical dosage for adults is 2 g per 70 kg orally and 20 ml per 70 kg intravenously, converting to rat doses of 180 mg/kg and 1.8 ml/kg, respectively.
(§6) In the pre-experiments, we compared cinobufacini capsule of 180 mg/kg (one-time clinical dose) and 900 mg/kg (five times of clinical dose) and Cinobufacini injection of 1.8 ml/kg, but concentrations of some compounds in plasma were too low and difficult to be quantified. […] The experimental rats were led to fast the night and were free to get access to water for 12 h before the pharmacokinetic study. After administration, blood samples (approximately 150 μL) of rats were collected via retro-orbital sinus into heparinized centrifuge tubes at 0.05, 0.083, 0.25, 0.5, 0.75, 1, 2, 4, 6, 8, and 10 h. After centrifugation at 5,000 rpm for 10 min, the plasma was transferred to 1.5-ml polypropylene tubes and stored at −80°C until UPLC-MS/MS analysis.
(§7) GraphPad Prism software (version 8.0.2) was used to draw the mean plasma concentration–time curves of all analytes. The pharmacokinetic parameters were calculated by DAS 3.2.8 software. Meanwhile, the pharmacokinetic data on rats were presented as mean ± standard deviation (SD). Differences of pharmacokinetic parameters between groups were analyzed by the t-test using SPSS software (version 26.0). Differences were considered significant statistically when the p-values were <0.05 and very significant statistically when the p-values were <0.01.

[3] = Stability of analytes in rat plasma QC samples under storage conditions; format: physicochemical; conditions: n = 6; for Stability during 24 h at 4°C, RE: post-treatment storage in autosampler; for −80°C for 30 days, RE / Three freeze–thaw cycles, RE: rat plasma; for −80°C for 30 days, RE: long-term; for Three freeze–thaw cycles, RE: −80°C to room temperature
Description: The stability of QC samples in six replicates at three concentrations (low, medium, and high levels) was analyzed under different storage conditions: the post-treatment stability was analyzed after storage in an autosampler (4°C) for 24 h. Freeze–thaw stability was investigated after three freeze–thaw cycles (−80°C to room temperature as one cycle). Long-term stability was assessed by analyzing QC samples kept at −80°C for 30 days. The concentrations of the analytes in the plasma samples and the QC samples were calculated by the calibration standard curve prepared each day. The stabilities of analytes were acceptable when the accuracy (RE, %) and precision (RSD, %) of all QC samples in all storage conditions were within ±15% compared to nominal concentrations.

[4] = Pharmacokinetic study in rats after oral administration of cinobufacini capsule (UPLC-MS/MS of plasma); format: in vivo, rat; conditions: for detection in rat plasma: cinobufacini capsule groups
Description: as §1, §2, §3, §4, §5, §6, §7

[5] = parameters: method as in Wang et al., 2014; conditions: administration dose 1.11 mg/kg; ref Wang et al., 2014; cited from earlier work
[6] = high QC level (249.58–250.28 ng/ml)
[7] = medium QC level (49.92–50.06 ng/ml)

| Compound | concentration in plasma [1] | detection in rat plasma [2] | Stability during 24 h at 4°C, RE [3, 6] [%] | Stability during 24 h at 4°C, RE ([3]; low QC level (4.99–5.00 ng/ml)) [%] | Stability during 24 h at 4°C, RE [3, 7] [%] | −80°C for 30 days, RE [3, 6] [%] | −80°C for 30 days, RE ([3]; low QC level (4.99–5.00 ng/ml)) [%] | −80°C for 30 days, RE [3, 7] [%] | Three freeze–thaw cycles, RE [3, 6] [%] | Three freeze–thaw cycles, RE ([3]; low QC level (4.99–5.00 ng/ml)) [%] | Three freeze–thaw cycles, RE [3, 7] [%] | detection in rat plasma [4] | concentration in plasma ([4]; present study) | detection in plasma [1] | Cmax [5] [ng/mL] |
| --- | --- | --- | --- | --- | --- | --- | --- | --- | --- | --- | --- | --- | --- | --- | --- |
| CC(=O)O[C@H]1C[C@]2(O)[C@@H]3CC[C@@H]4C[C@@H](O)CC[C@]4(C)[C@H]3CC[C@]2(C)[C@H]1c1ccc(=O)oc1 [BL, bufotalin] | lower than 4.4 ng/ml | could not be detected | 5.7 | 11.4 | 5.0 | 6.0 | 2.3 | 2.1 | 7.1 | 3.4 | 3.1 | could not be detected | too low to calculate the pharmacokinetics parameters accurately | – | – |
| CC(=O)O[C@H]1[C@H]2O[C@]23[C@@H]2CC[C@@H]4C[C@@H](O)CC[C@]4(C)[C@H]2CC[C@]3(C)[C@H]1c1ccc(=O)oc1 [CBG, cinobufagin] | – | could not be detected | 0.6 | 4.8 | −3.2 | 2.3 | 3.7 | −1.0 | 3.4 | 4.8 | 0.0 | could not be detected | – | not detected | 4.49 |
| CC(=O)O[C@H]1[C@H]2O[C@]23[C@@H]2CC[C@]4(O)C[C@@H](O)CC[C@]4(C)[C@H]2CC[C@]3(C)[C@H]1c1ccc(=O)oc1 [CBT, cinobufotalin] | – | could not be detected | 4.8 | 9.8 | 7.7 | −8.7 | −0.3 | 4.1 | 12.0 | 4.3 | 13.2 | could not be detected | – | – | – |
| C[C@]12CC[C@H](O)C[C@H]1CC[C@@H]1[C@@H]2CC[C@]2(C)[C@@H](c3ccc(=O)oc3)C[C@H]3O[C@]132 [RBG, resibufogenin] | – | could not be detected | −3.3 | −6.4 | 3.5 | −2.8 | −1.3 | 2.3 | −1.9 | −0.3 | 3.3 | could not be detected | – | – | – |
